A short description of this data set: solvent given as SMILES.

This is an account of results in the Deep4Chem optical property database.

SMILES strings stand for the structures.

`C[Si](C)(c1ccc(-c2nc3ccccc3n2-c2ccccc2)cc1)c1ccc(-c2nc3ccccc3n2-c2ccccc2)cc1` registered an emission maximum (in ClCCl) of 359 nm.

For `Cc1cc(C)c(B(c2ccc(C#Cc3cc4ccc5cc(C#Cc6ccc(B(c7c(C)cc(C)cc7C)c7c(C)cc(C)cc7C)cc6)cc6ccc(c3)c4c56)cc2)c2c(C)cc(C)cc2C)c(C)c1`, the emission maximum (in Cc1ccccc1) stood at 426 nm.

Regarding `c1cc2c3c(c1)-c1ccc4c5c(ccc(c15)B3c1ccc3c5c(ccc-2c15)CC3)CC4`, the emission maximum (in Cc1ccccc1) came to 516 nm.

`COc1ccc(C#Cc2cc3ccccc3oc2=O)cc1` returned an emission maximum (in CC#N) of 456 nm.

`Cc1ccc2cc(C)ccc2c1`: the emission maximum (in C1CCCCC1) was 342.82 nm.

On to `C(#Cc1c(C#Cc2ccccc2)c(C#Cc2ccccc2)c(C#Cc2ccccc2)c(C#Cc2ccccc2)c1C#Cc1ccccc1)c1ccccc1`, for which the emission maximum (in ClCCl) worked out at 452 nm.

Take `COc1ccc(/C=C/c2cc(/C=C/c3ccc(OC)cc3)nc(/C=C/c3ccc4cc(OC)ccc4c3)n2)cc1`: the emission maximum (in C1CCOC1) is on record as 433 nm; the emission maximum (in CC#N) is given as 463 nm; the emission maximum (in CC(C)=O) amounted to 445 nm; the emission maximum (in CCCCCCC) was 401 nm; the emission maximum (in CS(C)=O) is on record as 471 nm; the emission maximum (in Cc1ccccc1) is listed as 411 nm. This compound yielded an emission maximum (in ClCCl) of 443 nm.

For `CCOC(=O)c1cc(C(=O)OCC)c2cc(NC(=O)C(F)(F)F)ccc2n1`, the emission maximum (in CCO) is on record as 436 nm.

In the case of `CCCc1ccc(C#Cc2cc(C#Cc3ccc(N(C)C)cc3)c3ccc4c(C#Cc5ccc(N(C)C)cc5)cc(C#Cc5ccc(N(C)C)cc5)c5ccc2c3c54)cc1`, the emission maximum (in ClCCl) is recorded as 603 nm.

In the case of `N#CC1=c2c3cccc4c(Br)ccc(c43)n2[B-](F)(F)[n+]2ccccc21`, the emission maximum turned out to be 545 nm (in C1CCOC1); 541 nm (in CC#N); 545 nm (in CCCCCC); 550 nm (in Cc1ccccc1); 546 nm (in ClCCl).

Regarding `N#Cc1cccc(-c2nc(-c3ccccc3)c(-c3ccccc3)[nH]2)c1`, where the note is “in CO”, the emission maximum is reported as 440 nm.

`FC(F)(F)c1ccc(/C2=C3N=C(C(c4ccccc4)=C/3c3ccccc3)/C(c3ccc(C(F)(F)F)cc3)=c3\[nH]/c(c(-c4ccccc4)c3-c3ccccc3)=C(/c3ccc(C(F)(F)F)cc3)C3=N/C(=C(/c4ccc(C(F)(F)F)cc4)c4[nH]c2c(-c2ccccc2)c4-c2ccccc2)C(c2ccccc2)=C3c2ccccc2)cc1` gave an emission maximum (in ClCCl) of 730 nm.

As to `Cc1cccc(C)c1Nc1ccc(/C=C/c2cccnc2)cc1`, the emission maximum was 450 nm (in CC#N) and 383 nm (in CCCCCC).

Compound `C(=C\c1ncnc2ccccc12)/c1ccc(-c2ccc(N(c3ccccc3)c3ccccc3)cc2)cc1` displayed an emission maximum (in C1CCCCC1) of 461 nm; an emission maximum (in C1CCOC1) of 572 nm; an emission maximum (in CC#N) of 642 nm; an emission maximum (in CS(C)=O) of 641 nm; an emission maximum (in ClCCl) of 610 nm.

For the compound `Cn1c(/C=C/c2ccc(/C=C/c3nc4ccccc4[nH]3)cc2)[n+](C)c2ccccc21`, the emission maximum was found to be 576 nm (in C1CCOC1); 576 nm (in CC#N); 580 nm (in CC(C)=O); 582 nm (in CN(C)C=O); 567 nm (in CO); 584 nm (in CS(C)=O). Moreover, the emission maximum (in O) amounted to 574 nm.

As for `c1ccc(-c2nc(-c3ccc(-n4c5ccc(-n6c7ccccc7c7ccccc76)cc5c5ccc6c(c7ccccc7n6-c6ccccc6)c54)cc3)c3sc4ccccc4c3n2)cc1`, the emission maximum (in Cc1ccccc1) is on record as 460.56 nm.

Where the note is “in CS(C)=O”, `c1csc(-c2nc3ccccc3c3cc4ccccn4c23)c1` gave an emission maximum of 508 nm.

`Cc1sc(Cl)cc1-c1nc(-c2ccc(Cl)cc2)[nH]c1-c1cc(Cl)sc1C`: the emission maximum (in CC#N) came out at 390 nm.

Take `COc1ccc2c(c1)sc1[n+]2[B-](F)(F)OC(c2ccc(N(C)C)cc2)=N1`: the emission maximum amounted to 466 nm (in C1CCOC1); 481 nm (in CC#N); 477 nm (in CC(C)=O); 454 nm (in Cc1ccccc1); 467 nm (in ClCCl).

Regarding `CN(C)c1ccc(-c2c(/C=C3/C=Cc4ccccc4N3Cc3ccccc3)c(=O)c2=O)cc1`, the emission maximum by setting is: (in C1CCCCC1) 427 nm; (in Cc1ccccc1) 435 nm; (in ClCCl) 586 nm.

Consider `c1ccc2c(c1)ccc1ccccc12`, for which the emission maximum (in Cc1ccccc1) is 350 nm.

Take `CC1=[N+]2C(=C(c3ccc(-c4c5ccccc5c(-c5ccccc5)c5ccccc45)cc3)c3ccc(C)n3[B-]2(F)F)C=C1`: the emission maximum runs as follows: (in CC#N) 523 nm; (in CCCCCC) 526 nm; (in CCO) 526 nm; (in CN(C)C=O) 529 nm; (in Cc1ccccc1) 532 nm; (in ClCCl) 526 nm.

In the case of `c1ccc(-c2ccc(-c3ccc(-n4c5ccccc5c5ccccc54)cc3)c3nsnc23)cc1`, the emission maximum was 527 nm (in C1CCOC1), 562 nm (in CC(C)=O), 481 nm (in CCCCCC) and 504 nm (in CCOCC).

For `N#Cc1nn(-c2ccccc2C(F)(F)F)nc1N1CCCC1`, the emission maximum (in CC#N) amounted to 433 nm.

On to `Cc1cc(C)c(B(c2c(C)cc(C)cc2C)c2cc3cc(N(C)C)c4ccccc4c3c3c2ccc2ccccc23)c(C)c1`, for which the emission maximum runs as follows: (in C1CCCCC1) 509 nm; (in C1CCOC1) 553 nm; (in CC#N) 565 nm; (in ClC(Cl)Cl) 536 nm; (in c1ccccc1) 539 nm.

For the compound `CC(C)(C)NC(=O)c1cc2ccc3cccc4ccc(c1C(=O)NC(C)(C)C)c2c34`, for the setting “in ClC(Cl)Cl”, the emission maximum is 392 nm.

Turning to `c1cc2ccc3cc4cccc5ccc6cc(c1)c2c3c6c54`, the emission maximum is recorded as 436 nm (in C1CCCCC1); 436 nm (in CC#N); 436 nm (in CO); 436 nm (in Cc1ccccc1); 437 nm (in ClCCl).

Compound `C[Si](C)(C)C#CC(C#C[Si](C)(C)C)=Cc1ccc(C=C(C#C[Si](C)(C)C)C#C[Si](C)(C)C)s1` displayed an emission maximum (in ClC(Cl)Cl) of 475 nm.

`CCCCCCCCc1ccc(-c2c3cc(-c4cc(CCCCCCCC)c(-c5ccc(-c6sc(/C=C7\SC(SCC)=NC7=O)cc6CCCCCCCC)s5)s4)sc3c(-c3ccc(CCCCCCCC)s3)c3cc(-c4cc(CCCCCCCC)c(-c5ccc(-c6sc(/C=C7\SC(SCC)=NC7=O)cc6CCCCCCCC)s5)s4)sc23)s1`: the emission maximum (in ClC(Cl)Cl) is 653 nm.

The compound `COc1ccc(C(=O)OCc2c(C)c(=O)n3c(=O)c(C)c(C)n23)cc1` had an emission maximum (in CCO) of 461 nm.

With `C[Si](C)(C)C#CC#Cc1ccc2c3cccc4cccc(c5cccc1c52)c43`, under “in C1CCCCC1”, the emission maximum is 477.08 nm.

With `N#CC1=CC(Br)=CC(C#N)=P1(c1ccccc1)c1ccccc1`, the emission maximum (in ClC(Cl)Cl) is listed as 519 nm.

Turning to `Clc1nc(Cl)nc(Nc2ccc3c4cccc5cccc(c6cccc2c63)c54)n1`, the emission maximum runs as follows: (in C1COCCO1) 472 nm; (in CC#N) 475 nm; (in CCCCOCCCC) 475 nm; (in CCOC(C)=O) 469 nm.

With `COc1ccc(-c2ccc(OC)cc2)cc1`, the emission maximum (in C1CCCCC1) is 363.77 nm.

Take `CC[C@H](C)COc1ccc(C2=C3C(C)=C(I)C(C)=[N+]3[B-](F)(F)n3c(C)c(I)c(C)c32)cc1`: the emission maximum (in ClCCl) came to 557 nm.

Under “in ClCCl”, `c1ccc(-n2nc(-c3ccc(-c4ccc5c(c4)C(c4ccccc4)(c4ccccc4)c4ccccc4-5)cc3)nc2-c2ccccn2)cc1` had an emission maximum of 358 nm.

`Cc1ccccc1-c1c2cccc3c(-c4ccc(C(C)(C)C)cc4)cc4c(-c5ccccc5C)c5cccc6c(-c7ccc(C(C)(C)C)cc7)cc1c(c65)c4c32` displayed an emission maximum (in ClCCl) of 455 nm.

For `COc1cccc(-c2c3ccccc3c3n2[B-](F)(F)[N+]2=Cc4c5ccccc5c(-c5cccc(OC)c5)n4[B-](F)(F)[N+]2=C3)c1`, the emission maximum was 596 nm (in CC#N); 598 nm (in CCCCCC); 603 nm (in CN(C)C=O); 608 nm (in Cc1ccccc1); 602 nm (in ClCCl).

Regarding `Cc1ccc2c(c1)C(C)(C)c1cc(C)ccc1N2c1ccc2c(c1)C(C)(C)c1cc(N3c4ccc(C)cc4C(C)(C)c4cc(C)ccc43)ccc1S2(=O)=O`, the emission maximum turned out to be 470.07 nm (in Cc1ccccc1) and 538 nm (in ClCCl).

Consider `Cn1c(=O)c(-c2ccccc2)nc2ccccc21`, for which the emission maximum (in c1ccccc1) is reported as 424 nm.

Regarding `CCN(CC)c1ccc2cc(/C=C/C(=O)/C=C(O)/C=C/c3cc4ccc(N(CC)CC)cc4oc3=O)c(=O)oc2c1`, the emission maximum (in C1CCOC1) is 568 nm; the emission maximum (in C1COCCO1) is 561 nm; the emission maximum (in CC#N) was determined as 609 nm; the emission maximum (in CC(C)=O) stood at 598 nm; the emission maximum (in CCOC(C)=O) came out at 566 nm; the emission maximum (in CN(C)C=O) was determined as 611 nm. This compound also showed an emission maximum (in CS(C)=O) of 621 nm, an emission maximum (in Cc1ccccc1) of 542 nm, an emission maximum (in ClC(Cl)Cl) of 581 nm and an emission maximum (in ClCCl) of 593 nm.

With `COc1ccc(-c2csc(/C(C#N)=C\Nc3ccc(C#N)cc3)n2)cc1`, the emission maximum reads like this: (in CC#N) 451 nm; (in CCO) 444 nm; (in CN(C)C=O) 453 nm; (in Cc1ccccc1) 441 nm; (in ClCCl) 447 nm.

`Cc1cc2cc3ccccc3cc2cn1`: the emission maximum (in CCO) was 437.06 nm.

`O=P1(c2ccccc2)C(c2ccccc2)=Cc2cc3ccccc3cc21` (configuration not stated) came in with an emission maximum (in ClCCl) of 428 nm.

For `C[Si](C)(C)C#Cc1cccc2ccccc12`, the emission maximum (in C1CCCCC1) is 336 nm.

For the setting “in O”, `C#CCOc1ccc(/C=C/C2=[N+]3C(=C(c4ccc(N(CC)CC)cc4)c4c(C)cc(/C=C/c5ccc(S(=O)(=O)O)cc5S(=O)(=O)O)n4[B-]3(F)F)C(C)=C2)cc1` displayed an emission maximum of 660 nm.

For `CC1=[N+]2C(=C(c3cccs3)c3ccc(C)n3[B-]2(F)F)C=C1c1cc2n(c1)[B-](F)(F)[N+]1=CC=CC1=C2c1c(C)cc(C)cc1C`, the emission maximum by setting is: (in C1CCCCC1) 650 nm; (in CCOC(C)=O) 670 nm.
